Assay results as given in article PMC11267363, “Supramolecular Nanofibers Ameliorate Bleomycin‐Induced Pulmonary Fibrosis by Restoring Autophagy” (Advanced Science, 2024).

Test system: TRB3/p62 PPIs in lung tissue
Assay: Co-IP, western blot and q-PCR of lung tissues from bleomycin mice
Format: in vivo
Settings: i.v.
Procedure: We attempted to elucidate the mechanism of Ac-GFFY-A2 peptide nanofibers in ameliorating bleomycin-induced lung fibrosis at the molecular level. The nanofibers were administered to the lung fibrosis mice model via intravenous (i.v.) injection, saline treatment as the control group. The mice were sacrificed on day 21 and lung tissues were harvested for the following detection. […] Those results confirmed the potential therapeutic efficacy of peptide nanofibers in pulmonary fibrosis at both the transcriptional and translational levels. […] Gene expression was determined relative to that of the endogenous reference gene (Gapdh) using the 2^-ΔΔCt method. […] The protein concentration was measured using BCA Protein Assay Kit (Thermo Scientific). […] The protein transferred PVDF membranes were incubated with following primary antibodies at 4°C overnight: Then the membranes were incubated with horseradish peroxidase (HRP)-conjugated secondary antibodies at room temperature for 1 h, and protein signals were detected using an enhanced chemiluminescence kit (Pierce). […] The co -precipitates were resolved using SDS-PAGE and detected with immunoblotting. […] Fluorescence imaging was performed using a IVIS Lumina II imaging (PerkinElmer, USA) at different time point post injection. […]

Ac-GFFYGGWLTRLLQTK-OH [Ac-GFFY-A2] was tested, and the “mRNA expression levels of Col 1, FN and α-SMA in lung tissues (q-PCR)” value (day 21, versus saline treatment control group) was “significantly lower” and the “TRB3/p62 interaction in lung tissue (co-IP)” value (lung tissues harvested on day 21) was “could disturb the interaction between TRB3 and p62 in lung tissue”.
